Experimental data taken from ChEMBL document CHEMBL4020785, “Switching subtype-selectivity: Fragment replacement strategy affords novel class of peroxisome proliferator-activated receptor α/δ (PPARα/δ) dual agonists” (Bioorg Med Chem Lett, 2017).
pEC50: −log10 of the molar value. Active and inactive are the calls of the source. No cut-off for these calls is given here.

Key:
[1] = target: T1, Peroxisome proliferator-activated receptor delta (Homo sapiens, UniProt Q03181); test: Agonist activity at GAL4N fused human PPARdelta LBD expressed in HEK293 cells co-expressing TK-MH100x4-Luc after 24 hrs by luciferase reporter gene assay; format: cell-based
T1 sequence (Q03181 whole entry): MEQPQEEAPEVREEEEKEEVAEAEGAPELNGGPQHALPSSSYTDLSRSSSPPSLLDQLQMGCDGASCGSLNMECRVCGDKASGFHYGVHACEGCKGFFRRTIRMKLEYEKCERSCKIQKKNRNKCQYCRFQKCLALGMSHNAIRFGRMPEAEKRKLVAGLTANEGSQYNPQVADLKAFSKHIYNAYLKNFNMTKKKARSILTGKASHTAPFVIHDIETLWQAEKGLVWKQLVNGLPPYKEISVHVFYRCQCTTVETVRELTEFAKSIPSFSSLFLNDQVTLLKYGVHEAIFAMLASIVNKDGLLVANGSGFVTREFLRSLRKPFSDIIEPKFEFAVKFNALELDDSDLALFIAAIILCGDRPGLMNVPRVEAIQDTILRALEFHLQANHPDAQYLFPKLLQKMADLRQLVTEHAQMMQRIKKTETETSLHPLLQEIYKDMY

[2] = target: T2, Peroxisome proliferator-activated receptor delta (Homo sapiens) (UniProt Q03181); test: Agonist activity at GAL4N fused human PPARdelta LBD expressed in HEK293 cells co-expressing TK-MH100x4-Luc after 24 hrs by luciferase reporter gene assay relative to GW501516; format: cell-based
T2 sequence (whole entry): T1 sequence (Q03181 whole entry)

[3] = target: T3, Peroxisome proliferator-activated receptor alpha (Homo sapiens, UniProt Q07869); test: Agonist activity at GAL4N fused human PPARalpha LBD expressed in HEK293 cells co-expressing TK-MH100x4-Luc after 24 hrs by luciferase reporter gene assay; format: cell-based
T3 sequence (Q07869 whole entry): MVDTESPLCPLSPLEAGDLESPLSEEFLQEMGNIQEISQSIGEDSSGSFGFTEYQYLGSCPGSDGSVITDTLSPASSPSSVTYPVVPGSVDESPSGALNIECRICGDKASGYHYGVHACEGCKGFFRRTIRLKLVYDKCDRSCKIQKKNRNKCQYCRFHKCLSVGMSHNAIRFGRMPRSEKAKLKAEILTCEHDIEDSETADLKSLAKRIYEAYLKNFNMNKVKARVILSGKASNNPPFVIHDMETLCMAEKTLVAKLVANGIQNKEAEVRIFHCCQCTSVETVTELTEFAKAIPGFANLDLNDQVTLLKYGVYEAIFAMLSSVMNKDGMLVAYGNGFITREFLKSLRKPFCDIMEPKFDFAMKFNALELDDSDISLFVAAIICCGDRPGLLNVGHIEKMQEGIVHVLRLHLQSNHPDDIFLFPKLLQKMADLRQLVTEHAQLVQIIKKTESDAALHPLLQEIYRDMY

[4] = target: T4, Peroxisome proliferator-activated receptor gamma (Homo sapiens) (UniProt P37231); test: Agonist activity at GAL4N fused human PPARgamma LBD expressed in HEK293 cells co-expressing TK-MH100x4-Luc at less than 30 uM after 24 hrs by luciferase reporter gene assay; format: cell-based
T4 sequence (whole entry): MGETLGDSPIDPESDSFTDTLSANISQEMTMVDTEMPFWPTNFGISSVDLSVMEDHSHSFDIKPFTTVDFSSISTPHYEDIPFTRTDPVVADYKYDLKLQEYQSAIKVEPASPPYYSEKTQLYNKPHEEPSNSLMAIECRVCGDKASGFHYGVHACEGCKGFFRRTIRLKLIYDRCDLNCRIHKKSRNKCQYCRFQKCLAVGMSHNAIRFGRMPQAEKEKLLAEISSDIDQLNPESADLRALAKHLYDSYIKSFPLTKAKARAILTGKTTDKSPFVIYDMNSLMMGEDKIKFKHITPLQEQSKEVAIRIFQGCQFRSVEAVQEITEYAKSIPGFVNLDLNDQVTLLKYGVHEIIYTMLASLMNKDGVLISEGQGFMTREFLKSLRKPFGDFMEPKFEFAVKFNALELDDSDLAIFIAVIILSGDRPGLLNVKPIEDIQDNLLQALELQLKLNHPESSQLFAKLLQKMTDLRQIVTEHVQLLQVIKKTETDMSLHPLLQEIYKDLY

[5] = target: T5, Peroxisome proliferator-activated receptor alpha (Homo sapiens) (UniProt Q07869); test: Agonist activity at GAL4N fused human PPARalpha LBD expressed in HEK293 cells co-expressing TK-MH100x4-Luc after 24 hrs by luciferase reporter gene assay relative to GW7647; format: cell-based
T5 sequence (whole entry): T3 sequence (Q07869 whole entry)

[6] = target: T3, Peroxisome proliferator-activated receptor alpha
[7] = target: T6, Peroxisome proliferator-activated receptor gamma (Homo sapiens, UniProt P37231); test: Agonist activity at GAL4N fused human PPARgamma LBD expressed in HEK293 cells co-expressing TK-MH100x4-Luc after 24 hrs by luciferase reporter gene assay; format: cell-based
T6 sequence (P37231 whole entry): T4 sequence (whole entry)

[8] = target: T4, Peroxisome proliferator-activated receptor gamma (Homo sapiens); test: Agonist activity at GAL4N fused human PPARgamma LBD expressed in HEK293 cells co-expressing TK-MH100x4-Luc after 24 hrs by luciferase reporter gene assay relative to rosiglitazone; format: cell-based
[9] = target: T5, Peroxisome proliferator-activated receptor alpha (Homo sapiens); test: Agonist activity at GAL4N fused human PPARalpha LBD expressed in HEK293 cells co-expressing TK-MH100x4-Luc at less than 30 uM after 24 hrs by luciferase reporter gene assay; format: cell-based
[10] = target: T2, Peroxisome proliferator-activated receptor delta (Homo sapiens); test: Agonist activity at GAL4N fused human PPARdelta LBD expressed in HEK293 cells co-expressing TK-MH100x4-Luc at less than 30 uM after 24 hrs by luciferase reporter gene assay; format: cell-based
[11] = target: T7, Peroxisome proliferator-activated receptor alpha (Mus musculus, UniProt P23204); test: Agonist activity at 3' GAL4 DNA binding domain fused mouse PPARalpha LBD expressed in U-2 OS cells after 40 hrs by luciferase reporter gene assay; format: cell-based
T7 sequence (P23204 whole entry): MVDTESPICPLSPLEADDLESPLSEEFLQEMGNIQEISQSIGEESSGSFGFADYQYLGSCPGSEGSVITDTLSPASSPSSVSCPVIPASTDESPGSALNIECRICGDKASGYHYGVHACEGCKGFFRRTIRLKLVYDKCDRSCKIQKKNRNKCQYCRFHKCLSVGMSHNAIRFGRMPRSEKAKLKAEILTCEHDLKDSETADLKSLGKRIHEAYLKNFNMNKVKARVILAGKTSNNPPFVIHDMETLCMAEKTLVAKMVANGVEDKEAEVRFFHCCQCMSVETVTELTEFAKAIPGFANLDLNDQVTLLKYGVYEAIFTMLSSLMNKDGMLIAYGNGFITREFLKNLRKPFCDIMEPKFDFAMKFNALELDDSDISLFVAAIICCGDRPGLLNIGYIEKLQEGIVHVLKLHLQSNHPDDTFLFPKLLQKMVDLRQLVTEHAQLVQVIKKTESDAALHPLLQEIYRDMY

[12] = target: T2, Peroxisome proliferator-activated receptor delta (Homo sapiens); test: Agonist activity at GAL4N fused human PPARdelta LBD expressed in HEK293 cells co-expressing TK-MH100x4-Luc at 50 uM after 24 hrs by luciferase reporter gene assay relative to control; format: cell-based

pEC50 [1] | Efficacy [2] | pEC50 [3] | Activity [4] | Efficacy [5] | pEC50 [6] | pEC50 [7] | Efficacy [8] | Activity [9] | Activity [10] | pEC50 [11] | Efficacy [12] | SMILES
 |  |  |  |  | 5.55 |  |  |  |  |  |  | CCO[C@@H](Cc1ccc(OCCN2c3ccccc3Oc3ccccc32)cc1)C(=O)O [RAGAGLITAZAR]
4.51 | 16 to 45% | 5.27 |  | 87 to 129% |  | 4.74 | 39 to 51% |  |  |  |  | CCOC(Cc1ccc(Oc2ccc(OCc3ccccc3)cc2)cc1)C(=O)O (stereo unspecified)
 |  | 5.42 |  | 122 to 186% |  | 6.44 | 119 to 130% |  |  | 5.77 | 38% | CCO[C@@H](Cc1ccc(OCCc2ccc(OS(C)(=O)=O)cc2)cc1)C(=O)O [TESAGLITAZAR]

Further lines, the compound ahead of its results:

SMILES | pEC50 [1] | Efficacy [2] | pEC50 [3] | Activity [4] | Efficacy [5] | pEC50 [6] | pEC50 [7] | Efficacy [8] | Activity [9] | Activity [10] | pEC50 [11] | Efficacy [12]
CC(=O)N[C@@H](C)c1nc(-c2ccc(OCCc3ccc(OS(C)(=O)=O)cc3)cc2)no1 | 6.00 | 4 to 19% | 6.35 | inactive | 13 to 33% |  |  |  |  |  |  | 
CC(=O)NC(C)c1nc(-c2ccc(OCCN3c4ccccc4Oc4ccccc43)cc2)no1 (stereo unspecified) | 6.35 | 2 to 9% | 6.33 | inactive | 7 to 17% |  |  |  |  |  |  | 
CC(=O)N[C@H](C)c1nc(-c2ccc(OCCc3ccc(OS(C)(=O)=O)cc3)cc2)no1 |  |  |  | inactive |  |  |  |  | inactive | inactive |  | 
CC(=O)NC(C)c1nc(-c2ccc(OCCCOc3ccc(Oc4ccccc4)cc3)cc2)no1 (stereo unspecified) | 6.49 | 2 to 11% | 6.62 | inactive | 17 to 27% |  |  |  |  |  |  | 
CC(=O)NC(C)c1nc(-c2ccc(OCC=C(c3ccc(Br)cc3)c3ccc(Br)cc3)cc2)no1 (stereo unspecified) | 6.01 | 5 to 14% | 6.06 | inactive | 3 to 15% |  |  |  |  |  |  | 
CC(=O)NC(C)c1nc(-c2ccc(OCCc3ccc(OS(C)(=O)=O)cc3)cc2)no1 (stereo unspecified) | 5.80 | 7 to 18% | 5.92 | inactive | 13 to 37% |  |  |  |  |  |  | 
